The source made the active and inactive calls. For most assays here, no stated cut-off is given here; in the data, actives have a measured EC50 and inactives only a lower limit.
Key:
[1] = target: T1, Sentrin-specific protease 7 (Homo sapiens, UniProt Q9BQF6); type: functional;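 further: Luminescence-based dose-response confirmation of ultra-high-throughput screening hits, measuring inhibition of SENP7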
T1 sequence (Q9BQF6 whole entry): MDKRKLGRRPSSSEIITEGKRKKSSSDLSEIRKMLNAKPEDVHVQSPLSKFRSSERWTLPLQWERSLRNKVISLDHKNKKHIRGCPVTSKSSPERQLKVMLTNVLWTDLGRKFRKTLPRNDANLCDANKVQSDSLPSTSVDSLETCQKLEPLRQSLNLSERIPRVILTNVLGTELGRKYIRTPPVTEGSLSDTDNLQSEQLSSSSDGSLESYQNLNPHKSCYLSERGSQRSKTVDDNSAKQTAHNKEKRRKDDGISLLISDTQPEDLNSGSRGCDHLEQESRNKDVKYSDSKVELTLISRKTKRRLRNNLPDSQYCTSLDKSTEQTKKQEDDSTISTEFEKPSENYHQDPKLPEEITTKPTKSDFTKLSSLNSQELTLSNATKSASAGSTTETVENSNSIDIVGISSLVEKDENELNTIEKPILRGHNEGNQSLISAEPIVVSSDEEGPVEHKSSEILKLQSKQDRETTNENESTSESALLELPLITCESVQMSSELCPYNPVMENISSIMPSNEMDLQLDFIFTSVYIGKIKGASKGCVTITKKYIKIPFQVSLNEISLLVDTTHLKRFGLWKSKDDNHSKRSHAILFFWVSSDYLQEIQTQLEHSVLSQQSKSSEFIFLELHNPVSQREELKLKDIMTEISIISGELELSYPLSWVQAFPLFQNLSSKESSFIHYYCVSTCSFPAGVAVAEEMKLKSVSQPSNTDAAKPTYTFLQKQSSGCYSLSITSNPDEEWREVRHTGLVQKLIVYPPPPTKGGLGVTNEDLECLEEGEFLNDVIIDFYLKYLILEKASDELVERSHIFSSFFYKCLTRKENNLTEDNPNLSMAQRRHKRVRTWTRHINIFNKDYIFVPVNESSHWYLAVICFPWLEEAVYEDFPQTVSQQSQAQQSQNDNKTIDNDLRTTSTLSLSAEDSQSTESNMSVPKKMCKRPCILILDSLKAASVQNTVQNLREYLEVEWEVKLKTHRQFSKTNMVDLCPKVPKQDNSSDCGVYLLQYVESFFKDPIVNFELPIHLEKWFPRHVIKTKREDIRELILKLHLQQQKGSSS

Streptococcus = experiment: GAS UMAA2166 growth inhibition – luminescence, BacTiterGlo, counter-screen for streptokinase expression inhibitor project, dose response (AID 1915); type: functional, organism-based;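 further: potency for reduction of bacterial viability or growth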
Protein RecA = target: T2, Protein RecA (Mycobacterium tuberculosis, UniProt P9WHJ3); experiment: Fluorescence Cell-Free Homogeneous Dose Retest to Identify Inhibitors of RecA-Intein Splicing Activity. [Related pubchem assays (depositor defined):AID2097, AID2223, AID489010, AID492950]; type: functional
T2 sequence (P9WHJ3 whole entry): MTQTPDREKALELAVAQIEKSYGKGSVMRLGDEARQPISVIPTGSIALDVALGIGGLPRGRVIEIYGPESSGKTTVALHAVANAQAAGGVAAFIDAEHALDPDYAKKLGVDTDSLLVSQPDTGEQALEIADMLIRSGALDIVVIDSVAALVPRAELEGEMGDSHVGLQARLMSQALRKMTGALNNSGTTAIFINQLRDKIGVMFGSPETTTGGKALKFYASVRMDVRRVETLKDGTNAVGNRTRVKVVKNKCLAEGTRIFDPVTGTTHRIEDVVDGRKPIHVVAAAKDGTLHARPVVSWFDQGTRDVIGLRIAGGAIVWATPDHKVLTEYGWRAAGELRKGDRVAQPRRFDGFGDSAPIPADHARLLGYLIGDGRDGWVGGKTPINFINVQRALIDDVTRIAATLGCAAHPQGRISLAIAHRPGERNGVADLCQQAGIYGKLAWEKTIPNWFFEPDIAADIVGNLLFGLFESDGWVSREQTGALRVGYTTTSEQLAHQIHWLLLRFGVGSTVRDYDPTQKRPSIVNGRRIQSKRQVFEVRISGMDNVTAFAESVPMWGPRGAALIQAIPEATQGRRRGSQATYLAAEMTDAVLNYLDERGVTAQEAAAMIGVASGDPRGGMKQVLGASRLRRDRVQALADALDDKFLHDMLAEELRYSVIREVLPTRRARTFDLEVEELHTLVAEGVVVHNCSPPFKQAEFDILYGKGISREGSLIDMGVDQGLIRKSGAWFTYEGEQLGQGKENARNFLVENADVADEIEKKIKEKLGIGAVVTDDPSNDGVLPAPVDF

Streptokinase A = target: T3, Streptokinase A (Streptococcus pyogenes serotype M1, UniProt P10520); experiment: viability-normalized secreted streptokinase activity reduction – plasminogen activation absorbance, OD405, dose response (AID 1914); type: functional, Streptococcus pyogenes M1 GAS;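 further: secreted streptokinase activity via plasminogen activation per viability signal from cell pellet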
T3 sequence (P10520 whole entry): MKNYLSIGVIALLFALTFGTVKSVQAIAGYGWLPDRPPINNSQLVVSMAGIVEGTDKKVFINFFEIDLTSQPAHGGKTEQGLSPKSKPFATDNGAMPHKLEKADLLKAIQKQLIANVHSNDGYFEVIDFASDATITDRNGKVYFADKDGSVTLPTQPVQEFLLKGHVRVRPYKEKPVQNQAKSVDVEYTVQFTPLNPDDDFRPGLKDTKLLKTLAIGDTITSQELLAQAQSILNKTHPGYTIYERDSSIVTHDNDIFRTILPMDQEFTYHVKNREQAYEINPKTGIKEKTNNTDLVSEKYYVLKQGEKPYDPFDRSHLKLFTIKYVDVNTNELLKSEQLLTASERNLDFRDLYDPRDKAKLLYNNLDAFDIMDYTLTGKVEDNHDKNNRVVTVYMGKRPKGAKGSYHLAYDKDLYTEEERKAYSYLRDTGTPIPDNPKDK

Cc1cnc(NC(=O)c2sc3ccccc3c2Cl)s1
IC50 [1]: 2.6 µM (active)

CN(C)c1ncc(C2=C(Cl)C(=O)C(N3CCCC3)=C(Cl)C2=O)s1
EC50 (Streptococcus): 135 µM (active)
EC50 (Protein RecA): 3.81 µM (active)
EC50 (Streptokinase A): > 150 µM (not active)

O=C1C(Cl)=C(NCc2cccnc2)C(=O)c2ccccc21
EC50 (Protein RecA): 2.17 µM (active)

Cc1ccc(Nc2cc(C)nn2-c2nc(C)cc(O)n2)cc1
EC50 (Streptococcus): 0.065 µM (active)
EC50 (Protein RecA): 61.4 µM (active)

Nc1ccc(Br)c2cccnc12
IC50 [1]: 9.77 µM (active)

O=C1C(O)=C/C(=N\c2ccccc2O)c2ccccc21
EC50 (Streptococcus): > 150 µM (not active)
EC50 (Protein RecA): 12.3 µM (active)
EC50 (Streptokinase A): 132 µM (active)
IC50 [1]: 5.84 µM (active)

Cc1ccc(C(=O)c2c(C)oc3c2C(=O)C(=O)c2ccccc2-3)cc1
EC50 (Streptococcus): 13.6 µM (active)
EC50 (Streptokinase A): > 150 µM (not active)
IC50 [1]: 6.7 µM (active)
